Common to all, as to experiment: biochemical
In experiment [1] the target is Fluc-Bpe (Bordetella pertussis, UniProt Q7VYU0, R29K). From the text:
planar lipid bilayer, block of fluoride current, two-site fit on Fluc-Bpe

Experiment [2] deals with Fluc-Bpe (Bordetella pertussis, UniProt Q7VYU0, E88Q/R29K/S83C). The source says: (§1) planar lipid bilayer, block of fluoride current, oriented channels, single-site fit on Fluc-Bpe
Experiment [3] concerns the target Fluc-Bpe (Bordetella pertussis, UniProt Q7VYU0, R29K/S83C).
Excerpt: as §1

Molecules are shown by their SMILES.

Sequence of Fluc-Bpe (Bordetella pertussis, UniProt Q7VYU0, R29K) (Q7VYU0 whole entry R29K): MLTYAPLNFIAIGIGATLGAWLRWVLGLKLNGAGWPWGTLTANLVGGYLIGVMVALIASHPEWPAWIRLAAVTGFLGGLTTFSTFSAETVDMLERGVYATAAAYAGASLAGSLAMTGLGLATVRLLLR
Sequence of Fluc-Bpe (Bordetella pertussis, UniProt Q7VYU0, E88Q/R29K/S83C) (Q7VYU0 whole entry E88Q/R29K/S83C): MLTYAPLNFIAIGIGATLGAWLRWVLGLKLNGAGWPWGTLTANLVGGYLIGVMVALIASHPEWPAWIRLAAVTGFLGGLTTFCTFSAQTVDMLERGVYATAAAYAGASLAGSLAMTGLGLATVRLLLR
Sequence of Fluc-Bpe (Bordetella pertussis, UniProt Q7VYU0, R29K/S83C) (Q7VYU0 whole entry R29K/S83C): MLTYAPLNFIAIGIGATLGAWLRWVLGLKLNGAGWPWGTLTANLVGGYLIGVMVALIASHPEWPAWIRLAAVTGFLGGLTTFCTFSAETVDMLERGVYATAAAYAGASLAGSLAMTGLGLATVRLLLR

`O=[N+]([O-])O` [NO3^-] displayed a Ki at Fluc-Bpe [1] of 45 mM.
On to `N#CO` [OCN^-], for which the Ki at Fluc-Bpe [2] was 48.9 mM; on Fluc-Bpe [3], 7.9 mM; at Fluc-Bpe [1] it was 6.8 mM.
For the molecule `N#CS` [SCN^-], at Fluc-Bpe [1], the Ki turned out to be 9 mM.

Broadly, the Ki is the dissociation constant of the complex between target and ligand, obtained from inhibition or displacement. Low values mean tighter binding, high ones weaker binding.

Values taken from PMC8315801, “The fluoride permeation pathway and anion recognition in Fluc family fluoride channels” (eLife, 2021).
